Tested on: unwanted hair on skin
Experiment: removal of hair from the skin with the depilatory article / thioglycolate salts
Format: in vivo, human
Settings: thioglycolate salt as keratin reducing agent
Description: A second aspect being a method of removing hair from the skin is also provided by the present invention, comprising the steps of: • (a) applying a depilatory article according to the present invention to a surface of skin, preferably human skin, • (b) leaving said depilatory article in contact with the skin for a period of at least 1 minute, preferably 2 to 10 minutes, more preferably 2 to 8 minutes, • (c) removing said depilatory article from the surface of the skin, and • (d) preferably rubbing, scraping, rinsing or wiping the surface of the skin in the area to which the depilatory article was applied. The formulation was disposed to a thickness of 0.3 mm, width of 1.5 cm and length of 3.5 cm on a cast HDPE 85% LLDPE 15% polymer blend film (23 microns in thickness and cut to 4.6 cm in length and 3.2 cm in width) using a stencil and wiper blade, such that the area covered by the formulation was centered along the width of the film and 1 mm away from the perimeter edge of one end of the film's length.

O=C([O-])CS.[K+] [potassium thioglycolate]
effectiveness at removing hair from the skin: effective at removing hair from the skin, even at low doses
